We go through one compound from patent publication US20250376441A1, “NOVEL COMPOUND AND PHARMACEUTICAL COMPOSITION COMPRISING SAME AS ACTIVE INGREDIENT” (Industry-Academic Cooperation Foundation, Yonsei University, priority 2017, published 2025).

By EC50 is commonly meant the concentration needed to bring the measured effect to its halfway point. Higher therefore signals a less potent agent. In general, IC50 refers to the concentration at which inhibition is half-maximal. In general, half-life refers to the time needed for the level to fall by half in the phase considered. Lower therefore signals fast loss. What is called inhibition is the drop in the measured response relative to a control, in per cent. One may read the solubility as how much of the substance goes into solution per volume.

“And” between values parts separate entries of the source, which are not always exact repeats. Identical values can stand only once. Like-named read-outs stand apart in the source and are kept apart here.

For data set [1], the system named is acetylcholine in brain tissues. Kind of data set: Acetylcholine content in brain tissue. It is filed as in vivo, ICR mice. How it is done: Subsequently, the syringe was allowed to stand for 5 minutes and then removed.
Measurement of acetylcholine in brain tissues was performed based on response of o-acyl derivatives with alkaline hydroxylamine. Specifically, 50 μl of brain tissue was taken and 50 μl of 1% hydroxylamine (Sigma, USA) was added and mixed. […] Finally, 500 μl of FeCl3 (10% in 0.1 N HCl) was added to measure an acetylcholine level (umole/mg protein), and then the absorbance was measured at 530 nm.

For data set [2], the system named is amyloid-beta peptide1-42 degenerative neurological disease-induced mice. The data set is described as follows: Rotarod test. The format is in vivo, ICR mice. To be noted: p<0.05 vs beta-amyloid group. The method, then:
(§1) In order to induce a degenerative neurological disease, the experimental animals of Preparatory Example 1 were anesthetized by inhalation with 2.5% isoflurane. Then, 1 μg of amyloid-beta peptide1-42, a degenerative neurological disease-inducing substance, was administered to the animals at both hippocampal positions (AP: −2.3, L: ±2.0, H: −1.5) using a stereotaxic apparatus. […] For the administration, 1 μl was injected, at a flow rate of 0.2 μl/min, with a […] gas-tight glass syringe (Hamilton, Reno, NV, USA) using a perfusion pump (Pump 22, Harvard Apparatus, South Natick, MA, USA). Subsequently, the syringe was allowed to stand for 5 minutes and then removed.
(§2) Then, a degenerative neurological disease was induced as in Preparation Example 2.
As an experiment for evaluating effects of the samples on decreased motor coordination ability and motor sensation associated with a degenerative neurological disease, a rotarod experiment which examines the overall motor function of the test groups was conducted. The experimental method was as follows. […] After 24 hours, the time to lose balance and fall off the rotating cylinder of the same condition was measured, and the result is illustrated in FIG. 11.

Data set [3] addresses AMP-activated protein kinase (AMPK). The data set is described as follows: AMPK kinase assay (luminescence, purified enzyme, ATP, substrate peptide). The format is biochemical. The conditions noted are these: AMPK activation. How it is done: In order to identify an effect of the Preparation Example 6 having the highest docking score in Experimental Example 1 on activity of the AMP-activated protein kinase (AMPK), a kinase assay was performed. The kinase assay was performed as follows. […] Then, purified AMP-activated protein kinase and ATP were allowed to react on a substrate peptide for the AMP-activated protein kinase, and degrees of luminescence thereof were shown as EC50 in Table 3 and FIG. 3.

In data set [4] the test system is amyloid-beta peptide1-42 degenerative neurological disease-induced mice. Kind of data set: Passive avoidance response test. The format is in vivo, ICR mice. To be noted: p<0.05 vs beta-amyloid group. The method, then:
as §1, §2
Under a situation where a chamber with a bright light and a dark chamber were connected to each other via a small passage, 4 hours before the experiment, the experimental animals were placed in the chamber with a bright light. The experimental animals instinctively enter the dark chamber. However, after 4 hours of fear learning carried out by using an electric shock to give aversive stimulus, in a case where the experimental animals are placed in the chamber with a bright light, the time until the experimental animals enter the dark chamber was measured and quantified. The results are illustrated in FIG. 10.

Another data set concerns L929. The data set is described as follows: Cytotoxicity test (Cyto X cell viability assay kit), L929. The conditions noted are these: Mus musculus. It is filed as cell-based. The method, then: (§3) In order to identify whether the Preparation Example 6 according to the present invention is toxic to cells, a cytotoxicity test was conducted at the Korea Research Institute of Chemical Technology using the Cyto X™ cell viability assay kit ([…]).

Data set [5] relates to amyloid-beta peptide1-42 degenerative neurological disease-induced mice. The data set is described as follows: Probe test (Morris water maze, platform removed). The format is in vivo, ICR mice. To be noted: 90 seconds without platform. The method, then: as §1, §2
A circular pool (diameter: 120 cm, height: 75 cm) was filled with water to a depth of 25±1 cm as in FIG. 4, and a 24 cm platform was prepared by hiding it 1 cm below the water surface. Space cues were installed on the four sides of the wall so that the aminals can identify locations, and skimmed milk powder was dissolved into water so that the animals cannot identify the platform with naked eyes. One day before the experiment, all the experimental animals were allowed to swim freely for 1 minute in a water bath having no platform, so that the animals can adapt to the swimming situation. After that, a test group was allowed to start, in any order, from two of the three quadrants except the quadrant where the platform was placed, and allowed to find the platform for 60 seconds. In a case where an animal finds the platform, the animal was allowed to stay thereon for 20 seconds. […] As soon as end of the position learning time, which is the 20-second staying time, the animal was allowed to start again from any quadrant, and the time and distance to reach the platform were measured. The procedure was performed four times a day, and all procedures were taken with a camera and analyzed with a video tracking system (Panlab, USA). Probe trials were made on the fifth day after the four-day experiment in toal was completed. The test group was allowed to swim freely for 90 seconds without the platform, thereby performing evaluation on whether the test group holds a memory of the platform location. The results are illustrated in FIGS. 5 to 7.
The results are illustrated in FIGS. 8 and 9.

A further data set relates to NIH 3T3. Kind of data set: Cytotoxicity test (Cyto X cell viability assay kit), NIH 3T3. The format is cell-based. The conditions noted are these: Mus musculus, NIH3T3. The method, then: as §3
A further data set is described as follows: Half-life test. The source says: In order to identify whether the Preparation Example 6 according to the present invention can be orally administered, a half-life of the compound was checked. […] The results are illustrated in FIG. 18.
The next data set addresses hERG channel (Homo sapiens, UniProt Q12809). The data set is described as follows: Cardiac stability test, hERG ligand binding assay. To be noted: read-out: Inhibition rate. For orientation: The hERG channel carries a current that helps repolarise heart muscle cells.
Data set [6] is described as follows: Solubility by nephelometry. The format is physicochemical. The conditions noted are these: 5% DMSO in water, aqueous with cosolvent or surfactant or cyclodextrin, kinetic from dmso stock, DMSO 5%/water solvent. How it is done: For a preliminary examination on clinical application of the Preparation Example 6, evaluation on lipophilicity and solubility was performed.

hERG channel, sequence (Q12809 whole entry): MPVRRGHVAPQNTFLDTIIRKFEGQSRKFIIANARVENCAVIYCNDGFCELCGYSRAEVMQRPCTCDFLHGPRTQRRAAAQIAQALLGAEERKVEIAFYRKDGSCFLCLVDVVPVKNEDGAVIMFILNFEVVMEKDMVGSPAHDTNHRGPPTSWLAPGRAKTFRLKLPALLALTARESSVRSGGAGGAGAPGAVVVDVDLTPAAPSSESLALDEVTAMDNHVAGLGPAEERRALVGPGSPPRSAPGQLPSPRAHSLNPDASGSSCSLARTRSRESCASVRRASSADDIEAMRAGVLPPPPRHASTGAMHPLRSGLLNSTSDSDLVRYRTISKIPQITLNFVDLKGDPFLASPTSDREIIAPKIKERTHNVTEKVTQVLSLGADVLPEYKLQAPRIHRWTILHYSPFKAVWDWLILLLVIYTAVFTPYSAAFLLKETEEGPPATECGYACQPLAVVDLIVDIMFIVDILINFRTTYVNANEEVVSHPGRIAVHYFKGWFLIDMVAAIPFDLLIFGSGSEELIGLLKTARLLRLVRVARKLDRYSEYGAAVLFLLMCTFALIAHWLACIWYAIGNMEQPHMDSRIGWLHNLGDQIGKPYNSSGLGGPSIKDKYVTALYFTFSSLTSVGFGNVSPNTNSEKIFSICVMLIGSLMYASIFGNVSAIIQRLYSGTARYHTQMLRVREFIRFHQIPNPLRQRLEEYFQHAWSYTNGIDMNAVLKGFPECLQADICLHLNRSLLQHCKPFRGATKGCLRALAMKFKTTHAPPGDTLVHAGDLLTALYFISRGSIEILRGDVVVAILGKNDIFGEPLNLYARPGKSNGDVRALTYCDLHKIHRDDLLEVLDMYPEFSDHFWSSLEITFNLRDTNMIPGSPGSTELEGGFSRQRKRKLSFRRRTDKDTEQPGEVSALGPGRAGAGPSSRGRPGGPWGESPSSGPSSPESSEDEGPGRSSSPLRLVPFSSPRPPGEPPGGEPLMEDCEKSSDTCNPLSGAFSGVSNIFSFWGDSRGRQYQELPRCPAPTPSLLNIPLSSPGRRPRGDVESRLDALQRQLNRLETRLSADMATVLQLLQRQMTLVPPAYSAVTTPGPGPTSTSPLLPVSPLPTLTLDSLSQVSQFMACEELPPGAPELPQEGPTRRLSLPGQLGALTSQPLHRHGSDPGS

Regarding `COc1ccc(OC)c(/C=C/C(=O)c2ccc(NS(=O)(=O)c3ccc(Cl)cc3)cc2)c1` [Preparation Example 6, (E)-4-Chloro-N-(4-(3-(2,5-dimethoxyphenyl)acryloyl)phenyl)benzenesulfonamide], the acetylcholine content came out at 22.31±1.80 μmole/mg protein in data set [1] (1 mg, p<0.05); 23.08±1.54 μmole/mg protein in data set [1] (10 mg, p<0.01); 22.79±1.45 μmole/mg protein in data set [1] (100 mg, p<0.01). The results for the “time to keep balance on the rotating cylinder” value in data set [2] (10 mg) and in data set [2] (100 mg) were 48.62 ± 10.54 s and 47.65 ± 8.13 s, respectively. Besides, in [3], the midpoint of the response, the EC50, lay at 0.637 µM. The “staying time in the chamber with a bright light” value is 156.87 ± 50.95 s in [4] (10 mg) and 153.48 ± 34.71 s in data set [4] (100 mg). Moreover, the IC50 in the data set on L929 and with NIH 3T3 was more than 100 µM each time. In addition, the “swimming time in the target quadrant” value was found to be 31.08 ± 6.33 s in data set [5] (1 mg, p<0.05); 36.73 ± 7.78 s in data set [5] (10 mg, p<0.01); 36.51 ± 6.55 s in data set [5] (100 mg, p<0.01). This compound yielded a half-life in “Half-life test” not below 3 h. Besides, the inhibition at 10 µM on hERG channel (hERG channel (ligand binding assay)) is less than 1%; at hERG channel, not above 1%. Moreover, the solubility in data set [6] is 206 µM and 94.4 µg/mL.
